The values below come from US10702506B2, “Small molecule inhibitors of pendrin ion exchange and pharmaceutical compositions” (THE REGENTS OF THE UNIVERSITY OF CALIFORNIA, priority 2016, dated 2020).

Assay [1] deals with HBE and CFBE cell cultures. In words: ASL pH by BCECF-dextran ratio imaging in HBE and CFBE cultures. The conditions noted are these: 25 μM, 4 hours. The class given is cell-based, human. How it is done:
To investigate the possible involvement of pendrin in ASL pH regulation, fluorescence ratio imaging was done of the ASL in HBE and CFBE cultures after staining with BCECF-dextran. In the absence of IL-13-treatment, ASL pH was ˜0.3 pH units more acidic in CFBE than HBE cultures (FIG. 5C; pH ˜7.4 vs. ˜7.1), in agreement with prior studies showing relative ASL acidity in CF.
ASL pH was measured using the pH-sensitive fluorophore BCECF conjugated to 10 kDa dextran (Invitrogen, Carlsbad, Calif.) as described, which was added 4-6 h prior to measurement (20 μl of 0.5 mg/ml in PBS). Cell inserts were incubated in HCO3^−-containing buffer (5% CO2 environment) and the ASL was imaged using a SMZ stereoscopic microscope (Nikon, Melville, N.Y.) equipped with a C9100 EM-CCD, Exfo XCite light source and BCECF filters (440/10X, 490/20X, 535/25M, Chroma, Bellows Falls, Vt.). In some experiments ASL pH was measured after PDSinh-A01 treatment, as described for ASL depth measurements. To relate BCECF fluorescence to pH, a calibration curve over the quasi-linear range of BCECF sensitivity was generated.

In a further assay the target is T1, pendrin (Homo sapiens, UniProt O43511).
T1 sequence (O43511 1-780): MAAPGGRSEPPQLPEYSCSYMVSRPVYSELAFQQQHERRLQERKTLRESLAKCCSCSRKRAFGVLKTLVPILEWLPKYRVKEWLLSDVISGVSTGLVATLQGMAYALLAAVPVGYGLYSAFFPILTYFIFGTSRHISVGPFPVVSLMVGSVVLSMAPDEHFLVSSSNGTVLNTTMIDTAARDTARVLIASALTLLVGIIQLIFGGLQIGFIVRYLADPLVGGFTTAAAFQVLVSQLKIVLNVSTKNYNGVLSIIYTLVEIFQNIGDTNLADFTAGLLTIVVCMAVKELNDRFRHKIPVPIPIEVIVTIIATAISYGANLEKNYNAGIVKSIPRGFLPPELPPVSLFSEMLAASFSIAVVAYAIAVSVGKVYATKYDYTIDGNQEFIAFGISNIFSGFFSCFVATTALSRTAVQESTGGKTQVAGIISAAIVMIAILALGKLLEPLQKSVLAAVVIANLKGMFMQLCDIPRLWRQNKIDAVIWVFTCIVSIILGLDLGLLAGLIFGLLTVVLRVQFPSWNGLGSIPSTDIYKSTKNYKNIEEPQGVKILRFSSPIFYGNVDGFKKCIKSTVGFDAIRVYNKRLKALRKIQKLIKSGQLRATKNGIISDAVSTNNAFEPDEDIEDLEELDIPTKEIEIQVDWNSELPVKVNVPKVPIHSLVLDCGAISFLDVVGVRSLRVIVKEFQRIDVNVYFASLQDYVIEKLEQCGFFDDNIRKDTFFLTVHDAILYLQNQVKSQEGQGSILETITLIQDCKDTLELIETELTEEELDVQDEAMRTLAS
In words: BCECF cytoplasmic pH assay of pendrin-mediated Cl−/HCO3− exchange in pendrin-expressing FRT cells. Also on record: expressed in transfected cells. The class given is cell-based. How it is done:
Cytoplasmic pH (pHi) was measured to assay pendrin-mediated Cl^−/HCO3^− exchange in pendrin-expressing FRT cells and primary cell cultures using the pH-sensitive fluorescent probe BCECF. Cells were loaded for 20 min using 10 μM BCECF-AM (Invitrogen, Carlsbad, Calif.) in HCO3^−-containing buffer (in mM: 120 NaCl, 5 KCl, 1 CaCl2), 1 MgSO4, 10 glucose, 5 Hepes, 25 NaHCO3; pH 7.4) at 27° C. in a tissue culture incubator. Cells were washed and transferred to the stage of a TE2000 microscope (Nikon, Melville, N.Y.) equipped with a C9100 EM-CCD (Hamamatsu, San Jose, Calif.), XCite light source (Excelitas, Waltham, Mass.), Nikon 20×N.A. 0.75 S Fluor objective, Uniblitz shutter (Vincent Associates, Rochester, N.Y.), and filters for BCECF fluorescence (Chroma, Bellows Fall, Vt.), where they were purged with 95% O2/5% CO2. […] BCECF pH-sensitive fluorescence (490 nm excitation, 535 nm emission) was acquired at 0.5 Hz, with control experiments confirming that BCECF pH-insensitive fluorescence was not altered during exchange protocols. In some experiments pHi changes in the absence of HCO3^− were measured using buffers in which NaCl or Na gluconate replaced NaHCO3^−. To relate BCECF fluorescence to pH, a calibration curve over the quasi-linear range of BCECF sensitivity (pH 6.6-7.7) was generated as described. […]

In the case of `Cn1nc(COc2cccc(F)c2)c2c1CCN(C(=O)Nc1ccc(Cl)cc1)C2` [PDSinh-A01], the “effect on ASL pH, IL-13-treated cultures” value in assay [1] (IL-13-treated) is given as “did not alter ASL pH”. In addition, the “effect on ASL pH, basal conditions” value in assay [1] (no IL-13) is “did not alter ASL pH”. The “inhibition of cytoplasmic alkalinization (Cl−/HCO3− exchange)” value against pendrin (25 μM) is reported as “strongly inhibited”. Moreover, the IC50 on pendrin (Cl−/HCO3− exchange, read-out: concentration giving fifty percent inhibition of Cl−/HCO3− exchange) was about 2500 nM.
